± gives the expanded uncertainty stated by the source.
Assays:
[1] = Crystal; DTA
[2] = Molar enthalpy of transition or fusion; settings: Crystal; DSC

Question: Which Normal melting temperature [1] does the source give for `COc1cc(C(=O)O)cc(OC)c1O` [4-hydroxy-3,5-dimethoxybenzoic acid] here?
Answer: The Normal melting temperature was 212.7 ± 1.1 °C.

Question: And the “Molar enthalpy of transition or fusion” value [2]?
Answer: Its value is 7.98 ± 0.359 kcal/mol.

Reference: the NIST ThermoML archive (doi:10.1021/acs.jced.7b00333)
